Assay results published in paper PMC6265332, “A scalable peptide-GPCR language for engineering multicellular communication” (Nature Communications, 2018).
Where a SMILES comes first, the peptide text is derived from it.

Tested on: fungal mating GPCRs (Ste2-like, xy.Ste2) expressed in S. cerevisiae strain JTy014
Format: cell-based, Ascomycete species of the code; expressed in S. cerevisiae
Settings: GPCR of the same code; for Bttm (basal activation) / Span / Top (maximal activation): fit parameter of the dose-response curve, A600-normalised RFP fluorescence, 8 h, triplicate; for Fold Change: fold activation, peptide-treated maximum over water-treated A600-normalised fluorescence; for Hill Slope: four-parameter fit of the dose-response curve (dynamic range)

Molecule	Bttm (basal activation)	Span	Top (maximal activation)	Fold Change	Hill Slope
CC[C@H](C)[C@H](NC(=O)[C@H](Cc1c[nH]c2ccccc12)NC(=O)CN)C(=O)NCC(=O)N[C@@H](CCCNC(=N)N)C(=O)N[C@@H](CS)C(=O)NCC(=O)N[C@H](C(=O)N1CCC[C@H]1C(=O)NCC(=O)N[C@@H](CO)C(=O)N[C@@H](CO)C(=O)N[C@@H](CS)C(=O)O)C(C)C [Bm] (H-GWIGRCGVPGSSC-OH; N-terminus and C-terminus assumed)	30.3	128.4	158.8	5.2	1.2
FCWRPGQPCG [Pd, mature mating peptide ligand 1, Pseudogymnoascus destructans]	28.8	161.2	190.0	6.6	0.7
KPHWTTYGYYEPQ [Cp, mature mating peptide ligand 1, Candida parapsilosis]	36.2	217.8	254.0	7.0	0.8
QWCR---IHGQSCW [Nc, mature mating peptide ligand 1, Neurospora crassa]	27.6	259.2	286.7	10.4	0.6
WCGHIGQGC [Pr, mature mating peptide ligand 1, Penicillium chrysogenum]	27.9	179.4	207.3	7.4	0.6
WCGRPGQPC [Bc, mature mating peptide ligand 1, Botrytis cinerea]	28.6	323.3	351.9	12.3	0.7
WCMRPGQPCW [Bb, mature mating peptide ligand 1, Beauvaria bassiana]	25.2	218.9	244.1	9.7	1.0
WCTRPGQGC [Pb, mature mating peptide ligand 1, Paracoccidioides brasiliensis]	20.2	196.9	217.1	10.8	0.5
WCYRIGEPCW [Hj, mature mating peptide ligand 1, Hypocrea jecorina]	53.0	376.5	429.5	8.1	0.6
